Holding throughout (assay): relative viability (nuclei count vs DMSO), 5 days (fraction); higher = more cells survive
Compound in the test “VX-11e + Bortezomib”: CC1=CN=C(N=C1C2=CNC(=C2)C(=O)N[C@H](CO)C3=CC(=CC=C3)Cl)NC4=C(C=C(C=C4)F)Cl [VX-11e] + CC(C)C[C@H](NC(=O)[C@H](Cc1ccccc1)NC(=O)c1cnccn1)B(O)O [Bortezomib] (partner 0.002 µM)
In outline: (§1)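 Relative viability was taken as the ratio of nuclei in treated wells to nuclei in vehicle wells. Lung cancer cell lines in 1536-well plates received compounds by pin tool one day after seeding, either one drug alone or a fixed anchor-drug dose plus five library-drug doses (not always all listed) in √10 steps. Nuclei were counted on 4× images after 5 days of treatment, and values are medians of duplicate plates.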

Compound in the test “VX-11e + Alpelisib”: CC1=CN=C(N=C1C2=CNC(=C2)C(=O)N[C@H](CO)C3=CC(=CC=C3)Cl)NC4=C(C=C(C=C4)F)Cl [VX-11e] + Cc1nc(NC(=O)N2CCC[C@H]2C(N)=O)sc1-c1ccnc(C(C)(C)C(F)(F)F)c1 [Alpelisib] (partner 2 µM)
The procedure, abridged:
as §1

Compound in the test “VX-11e + Olaparib”: CC1=CN=C(N=C1C2=CNC(=C2)C(=O)N[C@H](CO)C3=CC(=CC=C3)Cl)NC4=C(C=C(C=C4)F)Cl [VX-11e] + O=C(c1cc(Cc2n[nH]c(=O)c3ccccc23)ccc1F)N1CCN(C(=O)C2CC2)CC1 [Olaparib] (partner 8 µM)
The procedure, abridged:
as §1

Compound in the test “VX-11e + Pemetrexed”: CC1=CN=C(N=C1C2=CNC(=C2)C(=O)N[C@H](CO)C3=CC(=CC=C3)Cl)NC4=C(C=C(C=C4)F)Cl [VX-11e] + Nc1nc2[nH]cc(CCc3ccc(C(=O)N[C@@H](CCC(=O)O)C(=O)O)cc3)c2c(=O)[nH]1 [Pemetrexed] (partner 0.2 µM)
The procedure, abridged:
as §1

In the case of NCI-H1299, the relative viability in the test with VX-11e + Bortezomib (first compound 0.04 µM) is 0.987; with VX-11e + Bortezomib (first compound 0.1265 µM) it was 0.978; in the test with VX-11e + Bortezomib (first compound 0.4 µM), 0.978; with VX-11e + Bortezomib (first compound 1.265 µM), 1.05; with VX-11e + Bortezomib (first compound 4 µM) it was 0.556; in the test with VX-11e + Alpelisib (first compound 0.04 µM) it was 1.11. Moreover, the relative viability in the test with VX-11e + Alpelisib (first compound 0.1265 µM) was determined as 1.03; with VX-11e + Alpelisib (first compound 0.4 µM), 1.05; with VX-11e + Alpelisib (first compound 1.265 µM) it was 1.11; with VX-11e + Alpelisib (first compound 4 µM), 0.708; in the test with VX-11e + Olaparib (first compound 0.04 µM), 1; with VX-11e + Olaparib (first compound 0.1265 µM), 0.967. For the same cell line, the figures for the relative viability with VX-11e + Olaparib (first compound 0.4 µM), with VX-11e + Olaparib (first compound 1.265 µM) and in the test with VX-11e + Olaparib (first compound 4 µM) were 0.968, 0.92 and 0.519, respectively.

NCI-H1395: the relative viability in the test with VX-11e + Pemetrexed (first compound 0.04 µM) is 0.744; with VX-11e + Pemetrexed (first compound 0.1265 µM), 0.864; in the test with VX-11e + Pemetrexed (first compound 1.265 µM), 0.96; with VX-11e + Pemetrexed (first compound 4 µM), 0.533; in the test with VX-11e + Alpelisib (first compound 0.04 µM) it was 1.08; in the test with VX-11e + Alpelisib (first compound 0.1265 µM), 0.916. Further, the relative viability turned out to be 0.745 with VX-11e + Alpelisib (first compound 0.4 µM); 1.04 with VX-11e + Alpelisib (first compound 1.265 µM); 0.675 with VX-11e + Alpelisib (first compound 4 µM); 0.424 in the test with VX-11e + Olaparib (first compound 0.04 µM); 0.461 in the test with VX-11e + Olaparib (first compound 0.1265 µM); 0.499 in the test with VX-11e + Olaparib (first compound 1.265 µM). For the same cell line, the relative viability in the test with VX-11e + Olaparib (first compound 4 µM) came to 0.388.

Take NCI-H1563: the relative viability worked out at 0.884 with VX-11e + Bortezomib (first compound 0.04 µM); 0.734 with VX-11e + Bortezomib (first compound 0.1265 µM); 0.637 in the test with VX-11e + Bortezomib (first compound 0.4 µM); 0.739 with VX-11e + Bortezomib (first compound 1.265 µM); 0.747 in the test with VX-11e + Bortezomib (first compound 4 µM); 0.766 in the test with VX-11e + Pemetrexed (first compound 0.04 µM). The relative viability worked out at 0.798 with VX-11e + Pemetrexed (first compound 0.1265 µM); 0.915 in the test with VX-11e + Pemetrexed (first compound 0.4 µM); 0.631 in the test with VX-11e + Pemetrexed (first compound 1.265 µM); 0.655 with VX-11e + Pemetrexed (first compound 4 µM); 0.86 with VX-11e + Alpelisib (first compound 0.04 µM); 0.84 in the test with VX-11e + Alpelisib (first compound 0.1265 µM). Moreover, the relative viability in the test with VX-11e + Alpelisib (first compound 0.4 µM) was 0.897; in the test with VX-11e + Alpelisib (first compound 1.265 µM) it was 0.917; with VX-11e + Alpelisib (first compound 4 µM) it was 0.874.

NCI-H1648: the relative viability in the test with VX-11e + Pemetrexed (first compound 0.1265 µM) was determined as 0.891; in the test with VX-11e + Pemetrexed (first compound 0.4 µM), 0.866; in the test with VX-11e + Pemetrexed (first compound 1.265 µM) it was 0.596; with VX-11e + Pemetrexed (first compound 4 µM), 0.674; with VX-11e + Olaparib (first compound 0.1265 µM) it was 0.658; with VX-11e + Olaparib (first compound 0.4 µM), 0.765. For the same cell line, the relative viability in the test with VX-11e + Olaparib (first compound 1.265 µM) was determined as 0.855; with VX-11e + Olaparib (first compound 4 µM), 0.52.

As to NCI-H1650, the relative viability amounted to 0.192 with VX-11e + Bortezomib (first compound 0.04 µM); 0.198 with VX-11e + Bortezomib (first compound 0.1265 µM); 0.235 with VX-11e + Bortezomib (first compound 0.4 µM); 0.199 in the test with VX-11e + Bortezomib (first compound 1.265 µM); 0.195 with VX-11e + Bortezomib (first compound 4 µM); 0.323 with VX-11e + Pemetrexed (first compound 0.04 µM). Besides, the relative viability with VX-11e + Pemetrexed (first compound 0.1265 µM) amounted to 0.335; with VX-11e + Pemetrexed (first compound 0.4 µM) it was 0.334; in the test with VX-11e + Pemetrexed (first compound 1.265 µM), 0.377; in the test with VX-11e + Pemetrexed (first compound 4 µM) it was 0.305; in the test with VX-11e + Olaparib (first compound 0.04 µM) it was 0.685; in the test with VX-11e + Olaparib (first compound 0.1265 µM), 0.851. Moreover, the relative viability in the test with VX-11e + Olaparib (first compound 0.4 µM) came to 0.814; with VX-11e + Olaparib (first compound 1.265 µM) it was 0.793; in the test with VX-11e + Olaparib (first compound 4 µM), 0.807.

With NCI-H1703, the relative viability worked out at 0.473 with VX-11e + Bortezomib (first compound 0.04 µM); 0.414 in the test with VX-11e + Bortezomib (first compound 0.1265 µM); 0.258 in the test with VX-11e + Bortezomib (first compound 0.4 µM); 0.35 with VX-11e + Bortezomib (first compound 1.265 µM); 0.21 with VX-11e + Bortezomib (first compound 4 µM); 0.303 with VX-11e + Alpelisib (first compound 0.04 µM). In addition, the relative viability in the test with VX-11e + Alpelisib (first compound 0.1265 µM) amounted to 0.401; with VX-11e + Alpelisib (first compound 0.4 µM), 0.303; in the test with VX-11e + Alpelisib (first compound 1.265 µM) it was 0.444; with VX-11e + Alpelisib (first compound 4 µM), 0.294; with VX-11e + Olaparib (first compound 0.04 µM) it was 0.403; with VX-11e + Olaparib (first compound 0.1265 µM), 0.591. Also, the relative viability in the test with VX-11e + Olaparib (first compound 1.265 µM) turned out to be 0.393; with VX-11e + Olaparib (first compound 4 µM) it was 0.316.

In the case of NCI-H1793, the relative viability was 0.715 with VX-11e + Pemetrexed (first compound 0.1265 µM); 0.591 in the test with VX-11e + Pemetrexed (first compound 1.265 µM); 0.259 with VX-11e + Pemetrexed (first compound 4 µM); 0.519 in the test with VX-11e + Alpelisib (first compound 0.1265 µM); 0.539 in the test with VX-11e + Alpelisib (first compound 1.265 µM); 0.301 with VX-11e + Alpelisib (first compound 4 µM). The relative viability with VX-11e + Olaparib (first compound 0.1265 µM) is 0.788; in the test with VX-11e + Olaparib (first compound 1.265 µM), 0.751; with VX-11e + Olaparib (first compound 4 µM) it was 0.313.

Turning to NCI-H1944, the relative viability was 0.602 in the test with VX-11e + Pemetrexed (first compound 0.04 µM); 0.77 with VX-11e + Pemetrexed (first compound 0.1265 µM); 0.382 in the test with VX-11e + Pemetrexed (first compound 0.4 µM); 0.505 in the test with VX-11e + Pemetrexed (first compound 1.265 µM); 0.374 in the test with VX-11e + Pemetrexed (first compound 4 µM); 0.843 in the test with VX-11e + Alpelisib (first compound 0.04 µM). Also, the relative viability with VX-11e + Alpelisib (first compound 0.1265 µM) came out at 0.809; with VX-11e + Alpelisib (first compound 0.4 µM), 0.785; in the test with VX-11e + Alpelisib (first compound 1.265 µM) it was 0.557; in the test with VX-11e + Alpelisib (first compound 4 µM), 0.399; in the test with VX-11e + Olaparib (first compound 0.04 µM) it was 0.405; in the test with VX-11e + Olaparib (first compound 0.1265 µM), 0.417. In addition, the relative viability came out at 0.376 with VX-11e + Olaparib (first compound 0.4 µM), 0.345 with VX-11e + Olaparib (first compound 1.265 µM) and 0.328 in the test with VX-11e + Olaparib (first compound 4 µM).

For NCI-H2170, the relative viability with VX-11e + Pemetrexed (first compound 0.04 µM) was found to be 0.222; with VX-11e + Pemetrexed (first compound 0.1265 µM) it was 0.254; with VX-11e + Pemetrexed (first compound 0.4 µM), 0.232; with VX-11e + Pemetrexed (first compound 1.265 µM), 0.247; with VX-11e + Pemetrexed (first compound 4 µM) it was 0.254; with VX-11e + Alpelisib (first compound 0.04 µM), 0.76. The relative viability with VX-11e + Alpelisib (first compound 0.1265 µM) came to 0.71; with VX-11e + Alpelisib (first compound 0.4 µM), 0.758; with VX-11e + Alpelisib (first compound 1.265 µM) it was 0.719; with VX-11e + Alpelisib (first compound 4 µM), 0.71; in the test with VX-11e + Olaparib (first compound 0.04 µM), 0.635; with VX-11e + Olaparib (first compound 0.1265 µM), 0.662. The results for the relative viability with VX-11e + Olaparib (first compound 0.4 µM), in the test with VX-11e + Olaparib (first compound 1.265 µM) and with VX-11e + Olaparib (first compound 4 µM) were 0.603, 0.629 and 0.534, respectively.

Regarding NCI-H2342, the relative viability with VX-11e + Pemetrexed (first compound 0.1265 µM) stood at 0.83; with VX-11e + Pemetrexed (first compound 0.4 µM), 0.757; with VX-11e + Pemetrexed (first compound 1.265 µM) it was 0.798; in the test with VX-11e + Pemetrexed (first compound 4 µM), 0.737; with VX-11e + Olaparib (first compound 0.1265 µM) it was 0.476; with VX-11e + Olaparib (first compound 0.4 µM), 0.414. Also, the relative viability with VX-11e + Olaparib (first compound 1.265 µM) came out at 0.471; with VX-11e + Olaparib (first compound 4 µM) it was 0.367.

In the case of SK-MES-1, the relative viability with VX-11e + Pemetrexed (first compound 0.04 µM) was 0.903; in the test with VX-11e + Pemetrexed (first compound 0.1265 µM) it was 0.921; with VX-11e + Pemetrexed (first compound 0.4 µM), 0.818; in the test with VX-11e + Pemetrexed (first compound 1.265 µM) it was 0.553; with VX-11e + Pemetrexed (first compound 4 µM), 0.42; with VX-11e + Alpelisib (first compound 0.04 µM) it was 1.31. The relative viability stood at 0.815 with VX-11e + Alpelisib (first compound 0.1265 µM); 0.718 in the test with VX-11e + Alpelisib (first compound 0.4 µM); 0.644 with VX-11e + Alpelisib (first compound 1.265 µM); 0.208 with VX-11e + Alpelisib (first compound 4 µM); 0.732 with VX-11e + Olaparib (first compound 0.04 µM); 0.636 in the test with VX-11e + Olaparib (first compound 0.1265 µM). Besides, the relative viability with VX-11e + Olaparib (first compound 0.4 µM) was found to be 0.826; with VX-11e + Olaparib (first compound 1.265 µM) it was 0.493; with VX-11e + Olaparib (first compound 4 µM), 0.265.

For the cell line SW 900, the relative viability was 0.49 in the test with VX-11e + Pemetrexed (first compound 0.04 µM); 0.452 with VX-11e + Pemetrexed (first compound 0.1265 µM); 0.36 with VX-11e + Pemetrexed (first compound 1.265 µM); 0.294 with VX-11e + Pemetrexed (first compound 4 µM); 0.879 with VX-11e + Olaparib (first compound 0.04 µM); 0.888 with VX-11e + Olaparib (first compound 0.1265 µM). Besides, the relative viability in the test with VX-11e + Olaparib (first compound 1.265 µM) was determined as 0.836; with VX-11e + Olaparib (first compound 4 µM), 0.581.
